Results taken from patent publication US6995143B2, “Macrolides with antibacterial activity” (Basilea Pharmaceutica AG, priority 2002, dated 2006).
≈ marks a conversion by molar mass, not a printed value.

Assays:
Assay type in all cases: cell-based
[1] = test system: Escherichia coli ATCC 25922; experiment: MIC, standard microdilution technique; settings: for MIC: ATCC25922, read-out: minimum inhibitory concentration (MIC), Strain D
Source text: (§1) The antibacterial activities of the compounds have been determined by standard microdilution technique (National Committee for Clinical Laboratory Standards. 2000. Methods for Dilution Antimicrobial Susceptibility Tests for Bacteria that Grow Aerobically, 5th edition. Approved standard M7-A5. National Committee for Clinical Laboratory Standards, Wayne, Pa.).

[2] = test system: Staphylococcus aureus 1086; experiment: MIC, standard microdilution technique; settings: for MIC: read-out: minimum inhibitory concentration (MIC), Strain B
Source text: as §1

[3] = test system: Staphylococcus aureus 745; experiment: MIC, standard microdilution technique; settings: for MIC: read-out: minimum inhibitory concentration (MIC), Strain C
Source text: as §1

[4] = test system: Staphylococcus aureus ATCC 29213; experiment: MIC, standard microdilution technique; settings: for MIC: ATCC29213, read-out: minimum inhibitory concentration (MIC), Strain A
Source text: as §1

[5] = test system: Streptococcus pneumoniae 12288; experiment: MIC, standard microdilution technique; settings: for MIC: read-out: minimum inhibitory concentration (MIC), Strain H
Source text: as §1

[6] = test system: Streptococcus pneumoniae SL199T; experiment: MIC, standard microdilution technique; settings: for MIC: read-out: minimum inhibitory concentration (MIC), Strain G
Source text: as §1

[7] = test system: Streptococcus pneumoniae l/l; experiment: MIC, standard microdilution technique; settings: for MIC: read-out: minimum inhibitory concentration (MIC), Strain E
Source text: as §1

[8] = test system: Streptococcus pneumoniae ¼; experiment: MIC, standard microdilution technique; settings: for MIC: read-out: minimum inhibitory concentration (MIC), Strain F
Source text: as §1

[9] = test system: Haemophilus influenzae 12214; experiment: MIC, standard agar dilution method using HTM medium; settings: for MIC: read-out: minimum inhibitory concentration (MIC), Strain K
Source text: as §1, with “biological” for “antibacterial”, “of compounds of” for “of”, “present invention against Haemophilus influenzae” for “compounds”, “agar dilution method using HTM medium” for “microdilution technique”

[10] = test system: Haemophilus influenzae B1501; experiment: as above; settings: for MIC: read-out: minimum inhibitory concentration (MIC), Strain M
Source text: as §1, with “biological” for “antibacterial”, “of compounds of” for “of”, “present invention against Haemophilus influenzae” for “compounds”, “agar dilution method using HTM medium” for “microdilution technique”

[11] = test system: Haemophilus influenzae QK12/87; experiment: as above; settings: for MIC: read-out: minimum inhibitory concentration (MIC), Strain I
Source text: as §1, with “biological” for “antibacterial”, “of compounds of” for “of”, “present invention against Haemophilus influenzae” for “compounds”, “agar dilution method using HTM medium” for “microdilution technique”

[12] = test system: Haemophilus influenzae QK50; experiment: as above; settings: for MIC: read-out: minimum inhibitory concentration (MIC), Strain L
Source text: as §1, with “biological” for “antibacterial”, “of compounds of” for “of”, “present invention against Haemophilus influenzae” for “compounds”, “agar dilution method using HTM medium” for “microdilution technique”

Structure (SMILES)	minimum inhibitory concentration (MIC), Strain D [1] [µg/mL]	minimum inhibitory concentration (MIC), Strain B [2]	minimum inhibitory concentration (MIC), Strain C [3] [µg/mL]	minimum inhibitory concentration (MIC), Strain A [4]	minimum inhibitory concentration (MIC), Strain H [5] [µg/mL]	minimum inhibitory concentration (MIC), Strain G [6] [µg/mL]	minimum inhibitory concentration (MIC), Strain E [7]	minimum inhibitory concentration (MIC), Strain F [8] [µg/mL]	minimum inhibitory concentration (MIC), Strain K [9] [µg/mL]	minimum inhibitory concentration (MIC), Strain M [10] [µg/mL]	minimum inhibitory concentration (MIC), Strain I [11] [µg/mL]	minimum inhibitory concentration (MIC), Strain L [12] [µg/mL]	MIC [1] [µg/mL]	MIC [2] [µg/mL]	MIC [3] [µg/mL]	MIC [4] [µg/mL]	MIC [5] [µg/mL]	MIC [6] [µg/mL]	MIC [7] [µg/mL]	MIC [8] [µg/mL]	also measured
CC[C@H]1OC(=O)[C@@](C)(F)C(=O)[C@H](C)[C@@H](O[C@@H]2O[C@H](C)C[C@H](N(C)C)[C@H]2O)[C@](C)(OC)C[C@@H](C)C(=O)[C@H](C)[C@H]2[C@@H](SCCOCn3cc(C)c(=O)[nH]c3=O)C(=O)O[C@@]21C (single isomer, unassigned) [Example 14, (3R or S) 3aR, 4R or S, 6R, 8R, 9R, 10R, 12S, 15R, 15aS)-15-Ethyl-12-fluorooctahydro-8-methoxy-4,6,8,10,12,15a-hexamethyl-3-[[2-[[5-methyl-2,4-(1H,3H)-pyrimidinedione-1-yl]methoxy]ethyl]thio]-9-[[3,4,6-trideoxy-3-(dimethylamino)-β-D-xylo-hexopyranosyl]oxy]-2H-furo [2,3-c] oxacyclotetradecin-2,5,11,13 (3H,6H,12H)-tetrone]	>32	<=0.06 μg/ml	>32	<=0.06 μg/ml	16 (≈ 19 µM)	1 (≈ 1.18 µM)	<=0.06 μg/ml	2 (≈ 2.37 µM)	2 (≈ 2.37 µM)	2 (≈ 2.37 µM)	2 (≈ 2.37 µM)	2 (≈ 2.37 µM)	–	–	–	–	–	–	–	–	–
CC[C@H]1OC(=O)[C@H](C)C(=O)[C@H](C)[C@@H](O[C@@H]2O[C@H](C)C[C@H](N(C)C)[C@H]2O)[C@](C)(OC)C[C@@H](C)C(=O)[C@H](C)[C@H]2[C@@H](SCCNC(=O)c3cccnc3)C(=O)O[C@@]21C (single isomer, unassigned) [Example 19, (3R or S, 3aR, 4R or S, 6R, 8R, 9R, 10R, 12R, 15R, 15aS) -15-Ethyloctahydro-8-methoxy-4,6,8,10,12,15a-hexamethyl-3-[[2-[(3-pyridinylcarbonyl)amino]ethyl]thio]-9-[[-3,4,6-trideoxy-3-(dimethylamino)-β-D-xylo-hexopyranosyl]oxy]-2H-furo [2,3-c] oxacyclotetradecin-2,5,11,13 (3H,6H,12H)-tetrone]	–	–	–	–	–	–	–	–	–	–	–	–	> 32	0.25 (≈ 0.316 µM)	> 32	0.25 (≈ 0.316 µM)	> 32	32 (≈ 40.4 µM)	0.125 (≈ 0.158 µM)	2 (≈ 2.53 µM)	MIC [9]: 4 µg/mL (≈ 5.05 µM); MIC [10]: 4 µg/mL (≈ 5.05 µM); MIC [11]: 4 µg/mL (≈ 5.05 µM); MIC [12]: 8 µg/mL (≈ 10.1 µM)
CC[C@H]1OC(=O)[C@H](C)C(=O)[C@H](C)[C@@H](O[C@@H]2O[C@H](C)C[C@H](N(C)C)[C@H]2O)[C@](C)(OC)C[C@@H](C)C(=O)[C@H](C)[C@H]2[C@@H](SCCNS(=O)(=O)c3ccc(-c4ccccn4)s3)C(=O)O[C@@]21C (single isomer, unassigned) [Example 21]	>32	0.125 µg/mL (≈ 0.137 µM)	>32	0.125 µg/mL (≈ 0.137 µM)	32 (≈ 35.2 µM)	16 (≈ 17.6 µM)	<=0.06 μg/ml	8 (≈ 8.79 µM)	16 (≈ 17.6 µM)	16 (≈ 17.6 µM)	32 (≈ 35.2 µM)	16 (≈ 17.6 µM)	–	–	–	–	–	–	–	–	–
CC[C@H]1OC(=O)[C@H](C)C(=O)[C@H](C)[C@@H](O[C@@H]2O[C@H](C)C[C@H](N(C)C)[C@H]2O)[C@](C)(OC)C[C@@H](C)C(=O)[C@H](C)[C@H]2[C@@H](SCC#Cc3ccc(C#N)cc3)C(=O)O[C@@]21C (single isomer, unassigned) [Example 23]	>32	16 µg/mL (≈ 20.4 µM)	>32	16 µg/mL (≈ 20.4 µM)	>32	>32	1 µg/mL (≈ 1.28 µM)	>32	>32	>32	>32	>32	–	–	–	–	–	–	–	–	–
CC[C@H]1OC(=O)[C@@](C)(F)C(=O)[C@H](C)[C@@H](O[C@@H]2O[C@H](C)C[C@H](N(C)C)[C@H]2O)[C@](C)(OC)C[C@@H](C)C(=O)[C@H](C)[C@H]2[C@@H](SCC(=O)Nc3cccc4cccnc34)C(=O)O[C@@]21C (single isomer, unassigned) [Example 25]	>32	0.125 µg/mL (≈ 0.148 µM)	32 (≈ 37.8 µM)	0.25 µg/mL (≈ 0.295 µM)	4 (≈ 4.73 µM)	2 (≈ 2.36 µM)	<=0.06 μg/ml	0.125 (≈ 0.148 µM)	4 (≈ 4.73 µM)	8 (≈ 9.46 µM)	8 (≈ 9.46 µM)	4 (≈ 4.73 µM)	–	–	–	–	–	–	–	–	–
CC[C@H]1OC(=O)[C@H](C)C(=O)[C@H](C)[C@@H](O[C@@H]2O[C@H](C)C[C@H](N(C)C)[C@H]2O)[C@](C)(OC)C[C@@H](C)C(=O)[C@H](C)[C@H]2[C@@H](SCCNC(=O)c3cnc4ccccc4c3)C(=O)O[C@@]21C (single isomer, unassigned) [Example 27, (3R or S, 3aR, 4R or S, 6R, 8R, 9R, 10R, 12R, 15R, 15aS)-15-Ethyloctahydro-8-methoxy-4,6,8,10,12,15a-hexamethyl-3-[[2-[(3-quinolinylcarbonyl)amino]ethyl]thio]-9-[[3,4,6-trideoxy-3-(dimethylamino)-β-D-xylo-hexopyranosyl]oxy]-2H-furo [2,3-c] oxacyclotetradecin-2,5,11,13 (3H,6H,12H)-tetrone]	–	–	–	–	–	–	–	–	–	–	–	–	> 32	≤ 0.06	> 32	≤ 0.06	> 32	8 (≈ 9.5 µM)	≤ 0.06	8 (≈ 9.5 µM)	MIC [9]: 16 µg/mL (≈ 19 µM); MIC [10]: 8 µg/mL (≈ 9.5 µM); MIC [11]: 16 µg/mL (≈ 19 µM); MIC [12]: 16 µg/mL (≈ 19 µM)
CC[C@H]1OC(=O)[C@H](C)C(=O)[C@H](C)[C@@H](O[C@@H]2O[C@H](C)C[C@H](N(C)C)[C@H]2O)[C@](C)(OC)C[C@@H](C)C(=O)[C@H](C)[C@H]2[C@@H](SCCC(=O)Nc3cnc4ccccc4c3)C(=O)O[C@@]21C (single isomer, unassigned) [Example 42]	>32	0.125 µg/mL (≈ 0.148 µM)	>32	0.125 µg/mL (≈ 0.148 µM)	>32	32 (≈ 38 µM)	<=0.06 μg/ml	32 (≈ 38 µM)	16 (≈ 19 µM)	16 (≈ 19 µM)	16 (≈ 19 µM)	16 (≈ 19 µM)	–	–	–	–	–	–	–	–	–
CC[C@H]1OC(=O)[C@H](C)C(=O)[C@H](C)[C@@H](O[C@@H]2O[C@H](C)C[C@H](N(C)C)[C@H]2O)[C@](C)(OC)C[C@@H](C)C(=O)[C@H](C)[C@H]2[C@@H](SCCNc3ccc(C#N)cn3)C(=O)O[C@@]21C (single isomer, unassigned) [Example 46, (3R or S, 3aR, 4R or S, 6R, 8R, 9R, 10R, 12R, 15R, 15aS) -3-[[2-[(5-Cyanopyridin-2-yl)amino]ethyl]thio]-15-ethyloctahydro-8-methoxy-4,6,8,10,12,15a-hexamethyl-9-[[-3,4,6-trideoxy-3-(dimethylamino)-β-D-xylo-hexopyranosyl]oxy]-2H-furo [2,3-c] oxacyclotetradecin-2,5,11,13 (3H,6H,12H)-tetrone]	–	–	–	–	–	–	–	–	–	–	–	–	> 32	≤ 0.06	> 32	≤ 0.06	32 (≈ 40.6 µM)	4 (≈ 5.07 µM)	≤ 0.06	≤ 0.06	MIC [9]: 2 µg/mL (≈ 2.53 µM); MIC [10]: 1 µg/mL (≈ 1.27 µM); MIC [11]: 1 µg/mL (≈ 1.27 µM); MIC [12]: 4 µg/mL (≈ 5.07 µM)
